{"source": "ChEMBL document CHEMBL4028852", "about": "“Design of a Chemical Probe for the Bromodomain and Plant Homeodomain Finger-Containing (BRPF) Family of Proteins” (J Med Chem, 2017)", "key": {"[1]": {"biological_target": "T1, Transcription intermediary factor 1-alpha (Homo sapiens, UniProt O15164)", "T1 sequence (O15164 whole entry)": "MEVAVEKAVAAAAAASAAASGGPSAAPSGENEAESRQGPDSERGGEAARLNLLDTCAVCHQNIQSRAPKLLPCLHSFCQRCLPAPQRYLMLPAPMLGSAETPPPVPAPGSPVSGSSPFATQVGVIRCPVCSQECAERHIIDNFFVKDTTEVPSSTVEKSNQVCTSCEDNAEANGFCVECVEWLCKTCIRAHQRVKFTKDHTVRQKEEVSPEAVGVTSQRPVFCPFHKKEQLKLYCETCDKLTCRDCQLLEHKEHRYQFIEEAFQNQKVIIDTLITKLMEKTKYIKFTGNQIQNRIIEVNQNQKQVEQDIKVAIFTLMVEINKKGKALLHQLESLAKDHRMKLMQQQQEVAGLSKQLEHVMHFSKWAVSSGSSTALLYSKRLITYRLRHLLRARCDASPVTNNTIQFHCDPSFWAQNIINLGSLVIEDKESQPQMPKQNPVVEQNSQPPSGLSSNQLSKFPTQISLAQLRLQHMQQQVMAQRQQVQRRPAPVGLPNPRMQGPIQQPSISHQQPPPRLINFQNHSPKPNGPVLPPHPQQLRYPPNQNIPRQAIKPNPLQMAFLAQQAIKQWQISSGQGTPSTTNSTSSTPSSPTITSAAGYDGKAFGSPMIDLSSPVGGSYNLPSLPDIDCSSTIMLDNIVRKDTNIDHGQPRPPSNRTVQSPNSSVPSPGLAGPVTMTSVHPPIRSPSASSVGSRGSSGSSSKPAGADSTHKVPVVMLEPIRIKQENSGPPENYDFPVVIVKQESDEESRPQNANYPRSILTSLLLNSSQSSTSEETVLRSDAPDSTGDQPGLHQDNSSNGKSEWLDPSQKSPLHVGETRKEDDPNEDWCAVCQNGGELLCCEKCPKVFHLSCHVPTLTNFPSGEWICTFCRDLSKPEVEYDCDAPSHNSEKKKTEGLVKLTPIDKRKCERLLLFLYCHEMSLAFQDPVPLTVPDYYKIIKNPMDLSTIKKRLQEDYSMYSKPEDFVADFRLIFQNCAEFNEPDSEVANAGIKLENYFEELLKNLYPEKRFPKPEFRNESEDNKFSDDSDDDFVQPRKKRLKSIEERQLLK", "test": "Inhibition of human TRIM24 bromodomain (790 to 977 residues) expressed in Escherichia coli BL21 after 1 hr by BROMOscan assay"}, "DMS-114": {"system": "DMS-114", "test": "Inhibition of cell proliferation of human DMS114 cells after 72 hrs by MTS assay", "format": "functional", "conditions": "DMS-114, 72 h"}, "[2]": {"biological_target": "T2, ATPase family AAA domain-containing protein 2B (Homo sapiens, UniProt Q9ULI0)", "T2 sequence (Q9ULI0 whole entry)": "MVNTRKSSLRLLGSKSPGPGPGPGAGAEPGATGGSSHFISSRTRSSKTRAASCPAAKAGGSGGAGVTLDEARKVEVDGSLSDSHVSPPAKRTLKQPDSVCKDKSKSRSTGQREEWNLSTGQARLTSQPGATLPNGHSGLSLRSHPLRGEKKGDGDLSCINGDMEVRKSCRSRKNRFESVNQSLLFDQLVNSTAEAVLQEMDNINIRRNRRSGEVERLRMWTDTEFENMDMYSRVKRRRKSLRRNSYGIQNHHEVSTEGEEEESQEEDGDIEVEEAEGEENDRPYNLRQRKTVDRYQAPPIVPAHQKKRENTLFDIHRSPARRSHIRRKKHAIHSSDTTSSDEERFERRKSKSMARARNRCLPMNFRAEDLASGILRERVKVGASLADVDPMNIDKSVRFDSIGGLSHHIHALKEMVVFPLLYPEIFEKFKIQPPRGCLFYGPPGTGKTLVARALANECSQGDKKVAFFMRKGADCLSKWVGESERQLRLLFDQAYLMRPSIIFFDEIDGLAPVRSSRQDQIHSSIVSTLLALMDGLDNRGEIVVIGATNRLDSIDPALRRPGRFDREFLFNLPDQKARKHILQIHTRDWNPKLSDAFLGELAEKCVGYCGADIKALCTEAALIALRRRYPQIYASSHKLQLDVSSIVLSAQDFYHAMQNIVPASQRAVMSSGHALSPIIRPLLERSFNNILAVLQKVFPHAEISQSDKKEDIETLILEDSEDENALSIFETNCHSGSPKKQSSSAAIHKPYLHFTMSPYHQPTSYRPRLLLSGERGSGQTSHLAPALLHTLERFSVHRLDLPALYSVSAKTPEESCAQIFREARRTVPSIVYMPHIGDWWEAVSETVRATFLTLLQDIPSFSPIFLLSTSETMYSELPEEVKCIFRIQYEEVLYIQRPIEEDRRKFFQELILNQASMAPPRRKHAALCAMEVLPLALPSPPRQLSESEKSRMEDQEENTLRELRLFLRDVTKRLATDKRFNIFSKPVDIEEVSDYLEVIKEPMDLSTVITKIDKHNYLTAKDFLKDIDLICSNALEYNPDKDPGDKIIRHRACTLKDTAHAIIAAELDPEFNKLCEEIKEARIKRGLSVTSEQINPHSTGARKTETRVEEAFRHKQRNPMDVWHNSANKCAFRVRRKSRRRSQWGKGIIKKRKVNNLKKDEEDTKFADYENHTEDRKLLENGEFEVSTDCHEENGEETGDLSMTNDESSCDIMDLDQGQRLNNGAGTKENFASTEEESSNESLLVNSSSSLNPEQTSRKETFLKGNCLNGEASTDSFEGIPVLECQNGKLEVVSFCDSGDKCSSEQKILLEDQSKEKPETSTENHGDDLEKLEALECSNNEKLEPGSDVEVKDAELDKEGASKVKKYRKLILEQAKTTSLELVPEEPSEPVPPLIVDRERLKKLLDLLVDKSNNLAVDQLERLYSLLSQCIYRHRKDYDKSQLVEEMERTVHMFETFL", "test": "Inhibition of human ATAD2B (955 to 1082 residues) expressed in Escherichia coli BL21 after 1 hr by BROMOscan assay"}, "[3]": {"test": "Elimination half life in CD1 mouse at 1 mg/kg, iv by UPLC-MS/MS analysis", "format": "ADME, organism-based", "conditions": "in vivo, read-out: beta t1/2 (converted)"}, "[4]": {"test": "Apparent permeability across basolateral to apical side in human Caco2 cells at 10 uM after 2 hrs by LC-MS/MS analysis", "format": "ADME, cell-based", "conditions": "Caco-2"}, "[5]": {"test": "Oral bioavailability in CD1 mouse at 3 mg/kg by UPLC-MS/MS analysis", "format": "ADME, organism-based", "conditions": "in vivo"}, "Liver": {"system": "Liver", "test": "Metabolic stability in human liver microsomes by UPLC-MS/MS analysis", "format": "ADME, microsome"}, "[6]": {"biological_target": "Bromodomain-containing protein 4 (Homo sapiens, UniProt O60885)", "test": "Inhibition of human BRD4 bromodomain 1 (unknown origin) using [H-YSGRGKacGGKacGLGKacGGAKacRHRK(Biotin)-OH peptide as substrate after 30 mins by alphaScreen assay"}, "KCNQ1/minK": {"biological_target": "KCNQ1/minK (Homo sapiens, UniProt P51787+Q8N4C8)", "sequence (P51787 whole entry)": "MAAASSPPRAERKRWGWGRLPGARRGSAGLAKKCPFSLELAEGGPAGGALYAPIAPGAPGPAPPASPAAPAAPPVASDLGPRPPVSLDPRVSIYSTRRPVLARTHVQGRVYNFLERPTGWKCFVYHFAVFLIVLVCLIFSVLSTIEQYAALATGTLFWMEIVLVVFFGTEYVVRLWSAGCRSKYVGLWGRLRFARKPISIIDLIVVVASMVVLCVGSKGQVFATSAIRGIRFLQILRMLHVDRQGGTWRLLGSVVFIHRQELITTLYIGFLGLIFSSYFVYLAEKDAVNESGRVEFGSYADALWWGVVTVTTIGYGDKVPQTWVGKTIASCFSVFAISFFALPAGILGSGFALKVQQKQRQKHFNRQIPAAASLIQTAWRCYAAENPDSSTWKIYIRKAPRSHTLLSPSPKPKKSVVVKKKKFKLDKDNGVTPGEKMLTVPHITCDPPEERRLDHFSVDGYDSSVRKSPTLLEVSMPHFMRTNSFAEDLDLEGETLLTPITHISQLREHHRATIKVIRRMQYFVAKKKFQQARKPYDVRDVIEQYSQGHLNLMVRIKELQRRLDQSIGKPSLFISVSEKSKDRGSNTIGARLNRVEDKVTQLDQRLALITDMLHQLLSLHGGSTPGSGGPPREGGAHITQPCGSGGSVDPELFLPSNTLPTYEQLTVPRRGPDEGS", "sequence (Q8N4C8 whole entry)": "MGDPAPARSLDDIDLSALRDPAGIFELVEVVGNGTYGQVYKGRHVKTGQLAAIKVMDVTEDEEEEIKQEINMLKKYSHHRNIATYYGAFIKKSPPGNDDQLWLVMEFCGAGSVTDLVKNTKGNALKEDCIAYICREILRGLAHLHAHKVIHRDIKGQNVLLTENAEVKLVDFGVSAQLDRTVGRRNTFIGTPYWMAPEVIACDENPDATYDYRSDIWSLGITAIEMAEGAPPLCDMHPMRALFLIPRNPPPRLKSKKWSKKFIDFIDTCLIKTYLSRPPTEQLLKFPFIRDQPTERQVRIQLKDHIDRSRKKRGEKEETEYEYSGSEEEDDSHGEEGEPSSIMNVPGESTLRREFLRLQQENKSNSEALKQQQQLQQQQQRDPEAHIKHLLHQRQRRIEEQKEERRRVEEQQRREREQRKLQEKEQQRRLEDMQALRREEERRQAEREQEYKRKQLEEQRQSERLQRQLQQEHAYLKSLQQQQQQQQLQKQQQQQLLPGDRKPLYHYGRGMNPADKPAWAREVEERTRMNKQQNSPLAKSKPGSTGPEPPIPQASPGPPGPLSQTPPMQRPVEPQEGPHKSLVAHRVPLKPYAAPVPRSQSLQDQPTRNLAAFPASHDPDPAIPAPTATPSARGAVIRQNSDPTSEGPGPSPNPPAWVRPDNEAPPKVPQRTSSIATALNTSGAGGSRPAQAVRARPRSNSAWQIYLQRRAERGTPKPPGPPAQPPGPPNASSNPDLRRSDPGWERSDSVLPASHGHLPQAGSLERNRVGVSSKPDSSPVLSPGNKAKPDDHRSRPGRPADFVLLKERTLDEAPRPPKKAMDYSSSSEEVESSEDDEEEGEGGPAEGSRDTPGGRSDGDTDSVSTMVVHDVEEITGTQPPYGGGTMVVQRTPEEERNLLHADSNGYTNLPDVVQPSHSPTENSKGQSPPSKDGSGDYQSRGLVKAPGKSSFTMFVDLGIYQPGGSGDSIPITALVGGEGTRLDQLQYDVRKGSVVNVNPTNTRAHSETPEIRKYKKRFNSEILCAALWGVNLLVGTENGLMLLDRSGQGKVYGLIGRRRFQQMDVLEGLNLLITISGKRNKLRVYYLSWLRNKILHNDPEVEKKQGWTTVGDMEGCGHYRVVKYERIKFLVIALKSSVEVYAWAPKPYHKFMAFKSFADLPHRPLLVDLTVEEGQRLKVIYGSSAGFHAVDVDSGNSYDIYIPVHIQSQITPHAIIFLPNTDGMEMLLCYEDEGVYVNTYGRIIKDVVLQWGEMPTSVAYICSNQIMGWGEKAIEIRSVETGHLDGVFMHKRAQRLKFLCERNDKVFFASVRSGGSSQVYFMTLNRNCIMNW", "test": "Inhibition of KCNQ1/minK (unknown origin) at 30 uM", "format": "protein-complex assay"}}, "note": "pIC50: −log10 of the molar value.", "data": [{"smiles": "COc1cc(C#N)ccc1S(=O)(=O)Nc1ccc2c(c1)cc(C)c(=O)n2C", "values": [{"measurement": "pIC50", "setting": "[1]", "result": 5.80}, {"measurement": "GI50", "setting": "DMS-114", "result": 14.7, "unit": "µM"}, {"measurement": "pIC50", "setting": "[2]", "result": "< 4.00"}, {"measurement": "half-life", "setting": "[3]", "result": 1.2, "unit": "h"}, {"measurement": "Papp B→A at 2 h, 10 µM", "setting": "[4]", "result": 52, "unit": "×10⁻⁶ cm/s"}, {"measurement": "bioavailability", "setting": "[5]", "result": 29, "unit": "%"}, {"measurement": "Stability", "setting": "Liver", "result": "Stable"}, {"measurement": "pIC50", "setting": "[6]", "result": "< 5.00"}, {"measurement": "inhibition at 30 µM", "setting": "KCNQ1/minK", "result": "< 40", "unit": "%"}]}]}
